# Counter-ions that a name gives are not always drawn.
# Key:
# [1] = target: rhIDO (recombinant human IDO) (Homo sapiens, UniProt P14902); experiment: Enzyme assay using rhIDO (rate of kynurenine production); assay type: biochemical; settings: 2 h; final concentration of the compound 10 μM; rate relative to reaction without compound; read-out: rhIDO-mediated kynurenine production
# How it was run: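 rhIDO preincubated with compound 10 min at 37 °C in phosphate buffer with ascorbate, methylene blue and catalase; started with 2 mM tryptophan solution (stock) and run 120 min at 37 °C. Stopped with TCA and heated to convert N-formylkynurenine; kynurenine read at 490 nm after p-dimethylbenzaldehyde, background-subtracted, as % of no-compound control.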
# [2] = target: rhTDO (recombinant human TDO) (Homo sapiens, UniProt P48775); experiment: Enzyme assay using rhTDO (rate of kynurenine production); assay type: biochemical; settings: 2 h; final concentration of the compound 10 μM; rate relative to reaction without compound; read-out: rhTDO-mediated kynurenine production
# How it was run: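 Kynurenine output, as percent of untreated control after background subtraction, read at 490 nm with p-dimethylbenzaldehyde following TCA quench and 15 min heating at 50 °C. Reaction: rhTDO with compound, 10 min preincubation then 120 min at 37 °C, started by 20 mM tryptophan stock, in phosphate/ascorbate/methylene blue/catalase.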
# IDO in A431 cells = target: T1, IDO in A431 cells (Homo sapiens, UniProt P14902); experiment: IDO cell-based assay, kynurenine production in IFN-γ stimulated A431 cells; settings: A-431, 24 h; final concentration of the compound 10 μM; rate relative to culture without compound
# T1 construct: endogenous in cells; host or cells: A431 cells, IFN-γ stimulated
# How it was run: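 A431 cells were cultured 24 h, then preincubated 1 h with compound in medium containing 178 μM L-tryptophan, and stimulated with IFN-γ (diluted to 100 ng/mL before addition) for 24 h. Kynurenine was measured by p-dimethylbenzaldehyde absorbance at 460 nm, background-subtracted, and expressed as % production versus no-compound control.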
# TDO in A172 cells = target: T2, TDO in A172 cells (Homo sapiens, UniProt P48775); experiment: TDO cell-based assay, kynurenine production in A172 cells; settings: A 172; final concentration of the compound 10 μM; rate relative to culture without compound
# T2 construct: endogenous in cells; host or cells: A172 cells
# How it was run: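 A172 cells were preincubated with compound for 1 h, then given L-tryptophan (final 524 μM) for 24 h at 37 °C. Kynurenine was read at 460 nm after p-dimethylbenzaldehyde/TCA reagent, background-subtracted, and expressed as % of no-compound production.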
# T2 sequence (P48775 whole entry): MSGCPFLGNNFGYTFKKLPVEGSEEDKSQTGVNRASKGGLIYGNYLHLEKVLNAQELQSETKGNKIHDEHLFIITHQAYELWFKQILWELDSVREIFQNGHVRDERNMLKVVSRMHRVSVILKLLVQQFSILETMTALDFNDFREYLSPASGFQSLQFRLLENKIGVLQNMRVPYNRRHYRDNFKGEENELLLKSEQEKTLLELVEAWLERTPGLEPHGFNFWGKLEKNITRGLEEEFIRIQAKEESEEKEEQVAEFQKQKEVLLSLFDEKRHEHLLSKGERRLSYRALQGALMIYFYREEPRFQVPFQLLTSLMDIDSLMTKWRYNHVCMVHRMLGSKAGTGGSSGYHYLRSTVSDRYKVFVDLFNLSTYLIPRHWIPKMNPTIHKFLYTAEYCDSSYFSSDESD
# rhTDO (recombinant human TDO), sequence (P48775 whole entry): as above
# rhIDO (recombinant human IDO), sequence (P14902 whole entry): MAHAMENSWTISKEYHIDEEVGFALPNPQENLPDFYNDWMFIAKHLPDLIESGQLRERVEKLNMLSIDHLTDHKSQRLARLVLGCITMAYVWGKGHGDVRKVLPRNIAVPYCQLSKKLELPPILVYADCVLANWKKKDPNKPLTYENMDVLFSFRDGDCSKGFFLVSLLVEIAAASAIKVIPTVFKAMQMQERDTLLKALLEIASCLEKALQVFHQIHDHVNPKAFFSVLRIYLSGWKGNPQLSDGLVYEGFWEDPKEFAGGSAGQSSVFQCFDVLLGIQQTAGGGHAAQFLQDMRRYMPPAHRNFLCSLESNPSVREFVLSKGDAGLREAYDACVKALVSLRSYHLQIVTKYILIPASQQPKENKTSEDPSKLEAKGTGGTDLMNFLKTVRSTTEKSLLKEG
# T1 sequence (P14902 whole entry): as above
remaining activity at 10 µM [1] [%],remaining activity at 10 µM [2] [%],remaining activity at 10 µM (IDO in A431 cells) [%],remaining activity at 10 µM (TDO in A172 cells) [%],Structure (SMILES)
-1,14,8,0,"Cc1ccc(/N=C(\N)SCc2cc(Cl)c(Cl)cc2CS/C(N)=N/c2ccc(C)cc2)cc1 [Compound 138, (4,5-Dichloro-1,2-phenylene)bis(methylene) (E,E)-bis(N′-(p-tolyl)carbamimidothioate) dihydrobromide]"
54,26,16,17,"Fc1ccc(CSC2=NCN(Cc3ccc(F)c(Cl)c3)CN2)c(CSC2=NCN(Cc3ccc(F)c(Cl)c3)CN2)c1 [Compound 146, 6,6′-(((4-Fluoro-1,2-phenylene)bis(methylene))bis(sulfanediyl))bis(3-(3-chloro-4-fluorobenzyl)-1,2,3,4-tetrahydro-1,3,5-triazine)]"
64,56,68,102,"CC(C)(C)c1ccc(CSC(=N)N)c(CSC(=N)N)c1 [Compound 4, (4-(tert-butyl)-1,2-phenylene)bis(methylene) dicarbamimidothioate dihydrobromide]"
69,40,18,12,"Fc1ccc(CN2CN=C(SCc3ccccc3CSC3=NCN(Cc4ccc(F)c(Cl)c4)CN3)NC2)cc1Cl [Compound 145, 1,2-Bis(((5-(3-Chloro-4-fluorobenzyl)-1,4,5,6-tetrahydro-1,3,5-triazin-2-yl)thio)methyl)benzene]"
30,36,10,0,"c1ccc(CCN2CN=C(SCc3ccccc3CSC3=NCN(CCc4ccccc4)CN3)NC2)cc1 [Compound 9, 1,2-bis(((5-phenethyl-1,4,5,6-tetrahydro-1,3,5-triazin-2-yl)thio)methyl)benzene]"
7,4,1,-11,"Clc1cc(CSC2=NCN(CCC3CCCCC3)CN2)c(CSC2=NCN(CCC3CCCCC3)CN2)cc1Cl [Compound 61, 6,6′-(((4,5-Dichloro-1,2-phenylene)bis(methylene))bis(sulfanediyl))bis(3-(2-cyclohexylethyl)-1,2,3,4-tetrahydro-1,3,5-triazine)]"
18,24,6,-4,"Cc1ccc(CCN2CN=C(SCc3ccccc3CSC3=NCN(CCc4ccc(C)c(C)c4)CN3)NC2)cc1C [Compound 23, 1,2-bis(((5-(3,4-dimethylphenethyl)-1,4,5,6-tetrahydro-1,3,5-triazin-2-yl)thio)methyl)benzene]"
24,14,8,11,"Fc1ccc(CN2CN=C(SCc3cc(Cl)c(Cl)cc3CSC3=NCN(Cc4ccc(F)c(Cl)c4)CN3)NC2)cc1Cl [Compound 139, 6,6′-(((4,5-Dichloro-1,2-phenylene)bis(methylene))bis(sulfanediyl))bis(3-(3-chloro-4-fluorobenzyl)-1,2,3,4-tetrahydro-1,3,5-triazine)]"
27,25,4,-2,"Cc1ccc(C)c(CCN2CN=C(SCc3ccccc3CSC3=NCN(CCc4cc(C)ccc4C)CN3)NC2)c1 [Compound 24, 1,2-bis(((5-(2,5-dimethylphenethyl)-1,4,5,6-tetrahydro-1,3,5-triazin-2-yl)thio)methyl)benzene]"

Structure (SMILES),remaining activity at 10 µM [1] [%],remaining activity at 10 µM [2] [%],remaining activity at 10 µM (IDO in A431 cells) [%],remaining activity at 10 µM (TDO in A172 cells) [%]
"CNC(=O)c1ccccc1CSC(=N)N [Compound 92, 2-(Methylcarbamoyl)benzyl carbamimidothioate hydrobromide]",90,68,112,81
"N=C(N)SCc1cc(Cl)c(Cl)cc1CSC(=N)N [Compound 36, (4,5-dichloro-1,2-phenylene)bis(methylene) dicarbamimidothioate dihydrobromide]",< 1,< 3,1,-15
